The source of these data is US20090118274A1, “MONOCYCLIC AMINOPROPYL TETRAHYDRO-PYRAZOLO-PYRIDINE MODULATORS OF CATHEPSIN S” (priority 2007, published 2009).

T1 sequence (P25774 115-331): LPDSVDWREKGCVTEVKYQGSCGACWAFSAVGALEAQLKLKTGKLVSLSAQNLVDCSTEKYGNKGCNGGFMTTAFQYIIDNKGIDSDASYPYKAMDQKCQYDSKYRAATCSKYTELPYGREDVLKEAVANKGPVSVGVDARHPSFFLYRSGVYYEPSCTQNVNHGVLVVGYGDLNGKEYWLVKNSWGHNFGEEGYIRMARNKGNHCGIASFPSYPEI

The first assay addresses T1, Recombinant human cathepsin S (CatS) (Homo sapiens, UniProt P25774).
T1 construct: made in house
The assay is described as follows: Recombinant human cathepsin S (CatS) fluorogenic substrate inhibition assay. It counts as biochemical.
Settings: not given
The procedure:
Recombinant human cathepsin S (CatS) was expressed in the baculovirus system and purified in one step with a thiopropyl-sepharose column. […] The assay is run in 150 mM sodium acetate pH 5.0 containing 1.5 mM DTT and 150 mM NaCl. […] Measurements are taken every min for 20 min. The rate is calculated from the slope of the increase in fluorescence and the percent inhibition is calculated from this.
The term IC50 denotes the concentration at which inhibition is half-maximal. With `CS(=O)(=O)N1CCc2c(c(-c3ccc(Cl)c(CNC(=O)c4ccc(F)cc4)c3)nn2CC(O)CN2CCC(C(F)(F)F)CC2)C1` (centres unmarked) [Example 15, N-(2-Chloro-5-{1-[2-hydroxy-3-(4-trifluoromethyl-piperidin-1-yl)-propyl]-5-methanesulfonyl-4,5,6,7-tetrahydro-1H-pyrazolo[4,3-c]pyridin-3-yl}-benzyl)-4-fluoro-benzamide], the IC50 was 70 nM.
Consider `CS(=O)(=O)N1CCc2c(c(-c3ccc(C(F)(F)F)c(CNC(=O)Oc4ccccc4)c3)nn2CC(O)CN2CCC3(CCNC3=O)CC2)C1` (centres unmarked) [Example 149, (5-{1-[2-Hydroxy-3-(1-oxo-2,8-diaza-spiro[4.5]dec-8-yl)-propyl]-5-methanesulfonyl-4,5,6,7-tetrahydro-1H-pyrazolo[4,3-c]pyridin-3-yl}-2-trifluoromethyl-benzyl)-carbamic acid phenyl ester], for which the IC50 turned out to be 220 nM.
Same read-out and setting: for `CC(C)CCNCc1cc(-c2nn(CC(O)CN3CCC(NS(C)(=O)=O)CC3)c3c2CN(S(C)(=O)=O)CC3)ccc1C(F)(F)F` (centres unmarked) [Example 283, N-{1-[2-Hydroxy-3-(5-methanesulfonyl-3-3-[(3-methyl-butylamino)-methyl]-4-trifluoromethyl-phenyl-4,5,6,7-tetrahydro-pyrazolo[4,3-c]pyridin-1-yl)-propyl]-piperidin-4-yl}-methanesulfonamide] the value was 800 nM.

Staying with this assay, now noted: average of results obtained; substrate Z-Valine-Valine-Arginine-AMC 10 μM, pH 5.0; read-out: CatS IC50.
In the case of `CS(=O)(=O)N1CCc2c(c(-c3ccc(Cl)c(CNC(=O)c4ccncc4)c3)nn2CCCN2CCCC2)C1` [Example 235, N-{2-Chloro-5-[5-methanesulfonyl-1-(3-pyrrolidin-1-yl-propyl)-4,5,6,7-tetrahydro-1H-pyrazolo[4,3-c]pyridin-3-yl]-benzyl}-isonicotinamide], the IC50 is 890 nM.
Consider `CC(C)=CC(=O)NCc1cc(-c2nn(CC(O)CN3CCC(F)(F)CC3)c3c2CN(S(C)(=O)=O)CC3)ccc1C(F)(F)F` (centres unmarked) [Example 31, 3-Methyl-but-2-enoic acid 5-{1-[3-(4,4-difluoro-piperidin-1-yl)-2-hydroxy-propyl]-5-methanesulfonyl-4,5,6,7-tetrahydro-1H-pyrazolo[4,3-c]pyridin-3-yl}-2trifluoromethyl-benzylamide], for which the 50% inhibitory concentration (IC50) was determined as 110 nM.
The same measure, in the same setting: for `CS(=O)(=O)N1CCc2c(c(-c3ccc(C(F)(F)F)c(CNC(=O)c4ccc(F)cc4)c3)nn2CC(O)CN2CCC3(CCNC3=O)CC2)C1` (centres unmarked) [Example 16, 4-Fluoro-N-(5-{1-[2-hydroxy-3-(1-oxo-2,8-diaza-spiro[4.5]dec-8-yl)-propyl]-5-methanesulfonyl-4,5,6,7-tetrahydro-1H-pyrazolo[4,3-c]pyridin-3-yl}-2-trifluoromethyl-benzyl)-benzamide] the value was 60 nM.
Same read-out and setting: for `CS(=O)(=O)N1CCc2c(c(-c3ccc(C(F)(F)F)c(CNC(=O)c4ccc(F)cc4)c3)nn2CC(O)CN2CCN(CCO)CC2)C1` (centres unmarked) [Example 98, 4-Fluoro-N-[5-(1-{2-hydroxy-3-[4-(2-hydroxy-ethyl)-piperazin-1-yl]-propyl}-5-methanesulfonyl-4,5,6,7-tetrahydro-1H-pyrazolo[4,3-c]pyridin-3-yl)-2-trifluoromethyl-benzyl]-benzamide] the value was 280 nM; for `CC(=O)NC1CCN(CC(O)Cn2nc(-c3ccc(C(F)(F)F)c(CNC(=O)c4ccc(F)cc4)c3)c3c2CCN(S(C)(=O)=O)C3)CC1` (centres unmarked) [Example 140, N-(5-{1-[3-(4-Acetylamino-piperidin-1-yl)-2-hydroxy-propyl]-5-methanesulfonyl-4,5,6,7-tetrahydro-1H-pyrazolo[4,3-c]pyridin-3-yl}-2-trifluoromethyl-benzyl)-4-fluoro-benzamide], 50 nM.
Same read-out and setting: for `CS(=O)(=O)N1CCc2c(c(-c3ccc(Cl)c(CNC(=O)c4ccc(F)cc4)c3)nn2CCCN2CCCC2)C1` [Example 35, N-{2-Chloro-5-[5-methanesulfonyl-1-(3-pyrrolidin-1-yl-propyl)-4,5,6,7-tetrahydro-1H-pyrazolo[4,3-c]pyridin-3-yl]-benzyl}-4-fluoro-benzamide] the value was 280 nM.
With `CS(=O)(=O)N1CCc2c(c(-c3ccc(C(F)(F)F)c(C(=O)NCc4ccccc4)c3)nn2CC(O)CN2CCCC2)C1` (centres unmarked) [Example 193, N-Benzyl-5-[1-(2-hydroxy-3-pyrrolidin-1-yl-propyl)-5-methanesulfonyl-4,5,6,7-tetrahydro-1H-pyrazolo[4,3-c]pyridin-3-yl]-2-trifluoromethyl-benzamide], the IC50 worked out at 5600 nM.
The same measure, in the same setting: for `CC(=O)NC1CCN(CC(O)Cn2nc(-c3ccc(C(F)(F)F)c(CNC(=O)C=C(C)C)c3)c3c2CCN(S(C)(=O)=O)C3)CC1` (centres unmarked) [Example 29, 3-Methyl-but-2-enoic acid 5-{1-[3-(4-acetylamino-piperidin-1-yl)-2-hydroxy-propyl]-5-methanesulfonyl-4,5,6,7-tetrahydro-1H-pyrazolo[4,3-c]pyridin-3-yl}-2-trifluoromethyl-benzylamide] the value was 10 nM; for `Cc1cc(C(=O)NCc2cc(-c3nn(CC(O)CN4CCCC4)c4c3CN(S(C)(=O)=O)CC4)ccc2C(F)(F)F)ccc1F` (centres unmarked) [Example 96, 4-Fluoro-N-{5-[1-(2-hydroxy-3-pyrrolidin-1-yl-propyl)-5-methanesulfonyl-4,5,6,7-tetrahydro-1H-pyrazolo[4,3-c]pyridin-3-yl]-2-trifluoromethyl-benzyl}-3-methyl-benzamide], 240 nM.
The same measure, in the same setting: for `C/N=c1/ccccn1CC(O)Cn1nc(-c2ccc(Cl)c(CNC(=O)c3ccc(F)cc3)c2)c2c1CCN(S(C)(=O)=O)C2` (centres unmarked) [Example 221, N-(2-Chloro-5-{1-[2-hydroxy-3-(2-methylimino-2H-pyridin-1-yl)-propyl]-5-methanesulfonyl-4,5,6,7-tetrahydro-1H-pyrazolo[4,3-c]pyridin-3-yl}-benzyl)-4-fluoro-benzamide] the value was 670 nM; for `CS(=O)(=O)N1CCc2c(c(-c3ccc(Cl)c(COCc4ccccc4)c3)nn2CCCN2CCCC2)C1` [Example 71, 3-(3-Benzyloxymethyl-4-chloro-phenyl)-5-methanesulfonyl-1-(3-pyrrolidin-1-yl-propyl)-4,5,6,7-tetrahydro-1H-pyrazolo[4,3-c]pyridine], 1950 nM; for `CC(C)=CC(=O)NCc1cc(-c2nn(CC(O)CN3CCC(C)(C)CC3)c3c2CN(S(C)(=O)=O)CC3)ccc1C(F)(F)F` (centres unmarked) [Example 28, 3-Methyl-but-2-enoic acid 5-{1-[3-(4,4-dimethyl-piperidin-1-yl)-2-hydroxy-propyl]-5-methanesulfonyl-4,5,6,7-tetrahydro-1H-pyrazolo[4,3-c]pyridin-3-yl}-2-trifluoromethyl-benzylamide], 60 nM.
`CN(C)C(=O)CCc1cc(-c2nn(CCCN3CCOCC3)c3c2CN(S(C)(=O)=O)CC3)ccc1Cl` [Example 295, 3-{2-Chloro-5-[5-methanesulfonyl-1-(3-morpholin-4-yl-propyl)-4,5,6,7-tetrahydro-1H-pyrazolo[4,3-c]pyridin-3-yl]-phenyl}-N,N-dimethyl-propionamide]: the IC50 is 4850 nM.
For `CS(=O)(=O)N1CCc2c(c(-c3ccc(C(F)(F)F)c(CNC(=O)c4ccc(Cl)c(Cl)c4)c3)nn2CC(O)CN2CCCC2)C1` (centres unmarked) [Example 229, 3,4-Dichloro-N-{5-[1-(2-hydroxy-3-pyrrolidin-1-yl-propyl)-5-methanesulfonyl-4,5,6,7-tetrahydro-1H-pyrazolo[4,3-c]pyridin-3-yl]-2-trifluoromethyl-benzyl}-benzamide], the 50% inhibitory concentration (IC50) came out at 780 nM.
Same read-out and setting: for `Cc1nc2ccccc2c(=O)n1Cc1cc(-c2nn(CCCN3CCC4(CCNC4=O)CC3)c3c2CN(S(C)(=O)=O)CC3)ccc1C(F)(F)F` [Example 174, 3-(5-{5-Methanesulfonyl-1-[3-(1-oxo-2,8-diaza-spiro[4.5]dec-8-yl)-propyl]-4,5,6,7-tetrahydro-1H-pyrazolo[4,3-c]pyridin-3-yl}-2-trifluoromethyl-benzyl)-2-methyl-3H-quinazolin-4-one] the value was 13500 nM.
Still for that read-out and setting: for `CC(C)CC(=O)NCc1cc(-c2nn(CC(O)CN3CCC(O)CC3)c3c2CN(S(C)(=O)=O)CC3)ccc1C(F)(F)F` (centres unmarked) [Example 245, N-(5-{1-[2-Hydroxy-3-(4-hydroxy-piperidin-1-yl)-propyl]-5-methanesulfonyl-4,5,6,7-tetrahydro-1H-pyrazolo[4,3-c]pyridin-3-yl}-2-trifluoromethyl-benzyl)-3-methyl-butyramide] the value was 270 nM.
For the compound `CS(=O)(=O)N1CCc2c(c(-c3ccc(Cl)c(CNC(=O)c4ccc(F)cc4)c3)nn2CC(O)CN2CCCC(O)C2)C1` (centres unmarked) [Example 74, N-(2-Chloro-5-{1-[2-hydroxy-3-(3-hydroxy-piperidin-1-yl)-propyl]-5-methanesulfonyl-4,5,6,7-tetrahydro-1H-pyrazolo[4,3-c]pyridin-3-yl}-benzyl)-4-fluoro-benzamide], the IC50 is 300 nM.
In the case of `CS(=O)(=O)N1CCc2c(c(-c3ccc(C(F)(F)F)c(CNC(=O)c4ccc(O)cc4)c3)nn2CCCN2CCC3(CCNC3=O)CC2)C1` [Example 142, 4-Hydroxy-N-(5-{5-methanesulfonyl-1-[3-(1-oxo-2,8-diaza-spiro[4.5]dec-8-yl)-propyl]-4,5,6,7-tetrahydro-1H-pyrazolo[4,3-c]pyridin-3-yl}-2-trifluoromethyl-benzyl)-benzamide], the concentration for half-maximal inhibition (IC50) was determined as 90 nM.
For the compound `CS(=O)(=O)N1CCc2c(c(-c3ccc(C(F)(F)F)c(CNC(=O)c4ccc(F)cc4)c3)nn2CC(O)CN2CC[C@H](CO)C2)C1` (stereo partly drawn) [Example 94, (S)-4-Fluoro-N-(5-{1-[2-hydroxy-3-(3-hydroxymethyl-pyrrolidin-1-yl)-propyl]-5-methanesulfonyl-4,5,6,7-tetrahydro-1H-pyrazolo[4,3-c]pyridin-3-yl}-2-trifluoromethyl-benzyl)-benzamide], the IC50 was found to be 180 nM.
Still for that read-out and setting: for `CS(=O)(=O)N1CCc2c(c(-c3ccc(C(F)(F)F)c(CNS(=O)(=O)c4ccccc4)c3)nn2CC(O)CN2CCCC2)C1` (centres unmarked) [Example 66, N-{5-[1-(2-Hydroxy-3-pyrrolidin-1-yl-propyl)-5-methanesulfonyl-4,5,6,7-tetrahydro-1H-pyrazolo[4,3-c]pyridin-3-yl]-2-trifluoromethyl-benzyl}-benzenesulfonamide] the value was 2900 nM.
